According to ChEMBL document CHEMBL4118086, “Potential of PI3Kβ Inhibitors in the Treatment of Cancer and Other Diseases” (ACS Med Chem Lett, 2017):

How the values were obtained:
[1] = target: Phosphatidylinositol 4,5-bisphosphate 3-kinase catalytic subunit gamma isoform (Homo sapiens, UniProt P48736); assay: Binding affinity to wild-type human PIK3Cgamma (S144 to A1102 residues) expressed in mammalian expression system by KINOMEScan assay
[2] = target: Serine/threonine-protein kinase mTOR (Homo sapiens, UniProt P42345); assay: Binding affinity to wild-type human MTOR (L1382 to W2549 residues) expressed in mammalian expression system by KINOMEScan assay
[3] = target: T1, Phosphatidylinositol 4,5-bisphosphate 3-kinase catalytic subunit beta isoform (Homo sapiens, UniProt P42338); assay: Inhibition of PI3Kbeta in human PC3 cells assessed as reduction in AKT phosphorylation at S473 residue measured after 60 mins by ELISA; format: cell-based
T1 sequence (P42338 whole entry, canonical isoform): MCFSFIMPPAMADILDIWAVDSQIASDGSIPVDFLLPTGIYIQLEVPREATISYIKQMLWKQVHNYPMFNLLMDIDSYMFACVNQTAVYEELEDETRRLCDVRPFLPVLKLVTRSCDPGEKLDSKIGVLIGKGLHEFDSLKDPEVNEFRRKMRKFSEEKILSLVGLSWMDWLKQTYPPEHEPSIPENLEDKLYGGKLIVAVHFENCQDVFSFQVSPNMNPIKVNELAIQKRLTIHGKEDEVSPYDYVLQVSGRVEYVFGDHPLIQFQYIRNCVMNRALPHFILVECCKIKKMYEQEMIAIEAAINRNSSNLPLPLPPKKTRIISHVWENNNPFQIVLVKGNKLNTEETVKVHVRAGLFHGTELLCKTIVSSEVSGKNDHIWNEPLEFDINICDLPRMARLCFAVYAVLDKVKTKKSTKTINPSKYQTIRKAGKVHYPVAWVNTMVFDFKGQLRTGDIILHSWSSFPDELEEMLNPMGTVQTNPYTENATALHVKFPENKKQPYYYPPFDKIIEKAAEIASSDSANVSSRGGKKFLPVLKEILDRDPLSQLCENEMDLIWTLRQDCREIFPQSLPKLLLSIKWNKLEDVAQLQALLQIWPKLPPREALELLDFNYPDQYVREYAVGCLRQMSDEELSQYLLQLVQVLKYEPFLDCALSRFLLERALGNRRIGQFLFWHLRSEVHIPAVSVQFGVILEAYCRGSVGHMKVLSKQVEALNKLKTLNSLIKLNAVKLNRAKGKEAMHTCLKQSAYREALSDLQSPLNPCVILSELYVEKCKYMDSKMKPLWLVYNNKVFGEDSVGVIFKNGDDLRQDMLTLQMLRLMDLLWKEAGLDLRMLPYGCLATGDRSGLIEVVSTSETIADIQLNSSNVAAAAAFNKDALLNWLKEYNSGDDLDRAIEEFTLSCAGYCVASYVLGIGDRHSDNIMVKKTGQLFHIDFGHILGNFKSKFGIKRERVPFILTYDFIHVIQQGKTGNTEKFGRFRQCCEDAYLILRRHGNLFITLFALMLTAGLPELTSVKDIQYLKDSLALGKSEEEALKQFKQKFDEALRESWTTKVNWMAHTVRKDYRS

[4] = target: T1, Phosphatidylinositol 4,5-bisphosphate 3-kinase catalytic subunit beta isoform; assay: Inhibition of PI3Kbeta in human PC3 cells assessed as reduction in AKT phosphorylation at Thr308 residue measured after 60 mins by ELISA; format: cell-based
[5] = target: Phosphatidylinositol 4,5-bisphosphate 3-kinase catalytic subunit alpha isoform (Homo sapiens, UniProt P42336); assay: Binding affinity to wild-type human PIK3Calpha (R108 to N1068 residues) expressed in mammalian expression system by KINOMEScan assay
Sequence of Phosphatidylinositol 4,5-bisphosphate 3-kinase catalytic subunit alpha isoform (P42336 whole entry, the tested form may be a part, canonical isoform): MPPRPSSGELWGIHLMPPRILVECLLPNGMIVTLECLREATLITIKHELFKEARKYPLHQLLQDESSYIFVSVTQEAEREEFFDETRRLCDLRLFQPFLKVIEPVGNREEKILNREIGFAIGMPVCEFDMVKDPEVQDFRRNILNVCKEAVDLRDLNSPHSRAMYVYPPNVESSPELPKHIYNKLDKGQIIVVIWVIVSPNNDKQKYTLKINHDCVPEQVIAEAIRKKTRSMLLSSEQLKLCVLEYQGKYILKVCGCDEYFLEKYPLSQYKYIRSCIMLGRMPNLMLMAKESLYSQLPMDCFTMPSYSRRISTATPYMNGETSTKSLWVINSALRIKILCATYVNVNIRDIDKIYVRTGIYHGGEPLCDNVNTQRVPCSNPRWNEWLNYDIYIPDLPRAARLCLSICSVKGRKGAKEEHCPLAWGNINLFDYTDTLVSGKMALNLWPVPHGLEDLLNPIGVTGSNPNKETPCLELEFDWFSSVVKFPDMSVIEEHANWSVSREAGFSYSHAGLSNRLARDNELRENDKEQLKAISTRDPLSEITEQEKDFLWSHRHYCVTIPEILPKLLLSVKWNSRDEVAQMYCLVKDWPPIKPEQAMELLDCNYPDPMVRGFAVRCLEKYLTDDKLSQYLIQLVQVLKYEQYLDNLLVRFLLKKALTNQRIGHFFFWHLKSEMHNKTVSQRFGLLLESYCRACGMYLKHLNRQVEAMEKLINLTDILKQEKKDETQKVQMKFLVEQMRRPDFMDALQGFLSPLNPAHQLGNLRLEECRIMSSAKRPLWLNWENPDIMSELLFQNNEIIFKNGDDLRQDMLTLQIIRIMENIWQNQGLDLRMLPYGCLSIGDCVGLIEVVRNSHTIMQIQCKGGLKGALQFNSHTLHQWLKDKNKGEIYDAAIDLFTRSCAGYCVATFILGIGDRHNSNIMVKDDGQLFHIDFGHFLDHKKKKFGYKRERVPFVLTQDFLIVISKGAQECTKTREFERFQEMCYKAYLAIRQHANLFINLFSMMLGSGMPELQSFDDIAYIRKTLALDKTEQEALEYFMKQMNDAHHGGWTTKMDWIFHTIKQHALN

[6] = target: T1, Phosphatidylinositol 4,5-bisphosphate 3-kinase catalytic subunit beta isoform; assay: Binding affinity to wild-type human PIK3Cbeta (P118 to S1070 residues) expressed in mammalian expression system by KINOMEScan assay
[7] = target: T2, Phosphatidylinositol 4,5-bisphosphate 3-kinase catalytic subunit delta isoform (Homo sapiens, UniProt O00329); assay: Binding affinity to wild-type human PIK3Cdelta (R108 to Q1044 residues) expressed in mammalian expression system by KINOMEScan assay
T2 sequence (O00329 whole entry): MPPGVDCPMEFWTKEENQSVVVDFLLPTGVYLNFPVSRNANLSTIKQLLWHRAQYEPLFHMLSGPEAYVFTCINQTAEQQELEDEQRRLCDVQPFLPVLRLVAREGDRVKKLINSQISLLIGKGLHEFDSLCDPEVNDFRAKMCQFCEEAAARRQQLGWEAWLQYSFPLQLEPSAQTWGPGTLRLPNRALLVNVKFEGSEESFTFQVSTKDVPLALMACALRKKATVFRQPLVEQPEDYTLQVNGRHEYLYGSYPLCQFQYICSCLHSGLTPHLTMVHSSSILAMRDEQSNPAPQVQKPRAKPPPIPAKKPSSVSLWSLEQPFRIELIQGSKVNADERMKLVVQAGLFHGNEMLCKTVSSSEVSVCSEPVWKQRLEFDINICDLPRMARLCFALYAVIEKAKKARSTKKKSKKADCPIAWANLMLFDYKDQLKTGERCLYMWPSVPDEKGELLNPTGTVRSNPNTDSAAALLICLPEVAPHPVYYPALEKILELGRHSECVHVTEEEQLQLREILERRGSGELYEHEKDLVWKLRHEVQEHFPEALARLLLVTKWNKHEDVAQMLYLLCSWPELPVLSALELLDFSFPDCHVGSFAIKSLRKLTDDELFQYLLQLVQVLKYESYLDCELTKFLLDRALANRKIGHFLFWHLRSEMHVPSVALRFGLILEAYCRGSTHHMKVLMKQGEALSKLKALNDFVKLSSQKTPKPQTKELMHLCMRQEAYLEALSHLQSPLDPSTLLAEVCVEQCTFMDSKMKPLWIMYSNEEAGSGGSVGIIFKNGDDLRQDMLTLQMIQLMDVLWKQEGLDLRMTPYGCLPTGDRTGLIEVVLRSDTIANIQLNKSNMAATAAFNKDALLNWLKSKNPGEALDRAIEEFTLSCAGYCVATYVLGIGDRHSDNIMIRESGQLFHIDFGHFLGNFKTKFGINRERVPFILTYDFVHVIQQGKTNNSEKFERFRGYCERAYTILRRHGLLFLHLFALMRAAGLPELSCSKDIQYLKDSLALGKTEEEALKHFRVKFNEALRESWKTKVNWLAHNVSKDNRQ

Sequence of Phosphatidylinositol 4,5-bisphosphate 3-kinase catalytic subunit gamma isoform (P48736 whole entry, the tested form may be a part, canonical isoform): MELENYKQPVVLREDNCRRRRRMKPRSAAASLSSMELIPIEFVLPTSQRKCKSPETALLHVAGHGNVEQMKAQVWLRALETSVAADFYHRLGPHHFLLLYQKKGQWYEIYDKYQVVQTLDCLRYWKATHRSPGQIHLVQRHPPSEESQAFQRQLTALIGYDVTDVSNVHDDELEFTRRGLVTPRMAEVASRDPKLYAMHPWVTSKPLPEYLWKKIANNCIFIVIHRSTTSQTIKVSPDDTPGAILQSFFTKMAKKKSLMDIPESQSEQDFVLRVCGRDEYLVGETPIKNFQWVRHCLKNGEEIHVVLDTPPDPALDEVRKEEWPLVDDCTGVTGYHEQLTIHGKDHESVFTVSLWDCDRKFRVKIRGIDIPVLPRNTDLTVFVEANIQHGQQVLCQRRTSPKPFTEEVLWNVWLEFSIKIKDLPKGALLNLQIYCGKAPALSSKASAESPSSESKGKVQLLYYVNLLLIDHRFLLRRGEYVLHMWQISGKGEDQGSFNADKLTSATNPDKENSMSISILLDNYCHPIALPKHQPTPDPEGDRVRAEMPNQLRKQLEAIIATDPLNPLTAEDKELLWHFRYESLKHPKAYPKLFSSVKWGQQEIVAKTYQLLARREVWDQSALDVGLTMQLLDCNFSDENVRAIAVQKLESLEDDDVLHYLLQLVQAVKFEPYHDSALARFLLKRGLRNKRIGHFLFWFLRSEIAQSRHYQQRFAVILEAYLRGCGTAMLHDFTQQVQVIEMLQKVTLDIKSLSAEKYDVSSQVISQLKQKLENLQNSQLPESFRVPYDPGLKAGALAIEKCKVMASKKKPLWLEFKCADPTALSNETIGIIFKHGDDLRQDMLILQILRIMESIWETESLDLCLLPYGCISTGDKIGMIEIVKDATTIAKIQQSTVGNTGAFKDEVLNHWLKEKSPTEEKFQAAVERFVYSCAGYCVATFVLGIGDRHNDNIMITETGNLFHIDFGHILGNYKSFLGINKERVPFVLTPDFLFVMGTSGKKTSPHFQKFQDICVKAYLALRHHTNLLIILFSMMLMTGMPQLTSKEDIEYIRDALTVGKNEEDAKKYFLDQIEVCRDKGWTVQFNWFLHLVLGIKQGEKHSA

SMILES	Kd [1]	Kd [2]	IC50 [3]	IC50 [4]	Kd [5]	Kd [6]	Kd [7]
CN(C)C(=O)c1cc([C@@H]2CCCN2c2cc(F)cc(F)c2)c2nc(N3CCOCC3)cnc2c1	> 30200 nM	> 30200 nM	> 513 nM	> 513 nM			
C[C@@H]1CN(C(=O)c2cc(C3CCCN3c3cc(F)cc(F)c3)c3nc(N4CCOCC4)cnc3c2)C[C@H](C)N1 (mixture of isomers)	214 nM	> 30200 nM	7 nM	5 nM	14 nM	0.2 nM	7 nM
C[C@@H](Nc1cc(F)cc(F)c1)c1cc(C(=O)NCCN(C)C)cc2ncc(N3CCOCC3)nc12			2 nM	2 nM			
C[C@H](Nc1cc(F)cc(F)c1)c1cc(C(=O)NCCN(C)C)cc2ncc(N3CCOCC3)nc12		> 30200 nM	331 nM	148 nM			
C[C@@H](Nc1cccc(F)c1)c1cc(C(=O)NCCO)cc2ncc(N3CCOCC3)nc12	3410 nM	17100 nM	49 nM	44 nM	1100 nM	3 nM	324 nM
CN(C)C(=O)c1cc([C@H]2CCCN2c2cc(F)cc(F)c2)c2nc(N3CCOCC3)cnc2c1	313 nM	28200 nM	2 nM	3 nM	34 nM	0.3 nM	15 nM
CC(Nc1cc(F)cc(F)c1)c1cc(C(=O)NCCN(C)C)cc2ncc(N3CCOCC3)nc12 (racemic)		> 30200 nM	6 nM	3 nM			
CNCCNC(=O)c1cc(C(C)Nc2cccc(F)c2)c2nc(N3CCOCC3)cnc2c1 (racemic)			7 nM	6 nM			
Cc1c(F)cccc1NCc1cc(C(=O)NCCN(C)C)cc2ncc(N3CCOCC3)nc12	6610 nM	17800 nM	9 nM	9 nM	1910 nM	0.2 nM	324 nM
CN(C)C(=O)c1cc(C2CCCN2c2cc(F)cc(F)c2)c2nc(N3CCOCC3)cnc2c1 (racemic)		> 30200 nM	4 nM	1.35 nM			
C[C@H](Nc1cccc(F)c1)c1cc(C(=O)NCCO)cc2ncc(N3CCOCC3)nc12		> 30200 nM	> 513 nM	> 513 nM			
